Assay results published in PubChem BioAssay AID248 (DTP/NCI, 2004).
Values joined by “and” are separate entries in the source; they are usually repeats but may differ in a detail not shown here. Equal entries are not always repeated. Toxic doses and inconclusive results are not listed.

Tested on: L1210 leukemia ip in BDF1 mice, survival T/C
Experiment: NCI In Vivo Anticancer Drug Screen. Data for tumor model L1210 Leukemia (intraperitoneal) in B6D2F1 (BDF1) mice
Conditions: endpoint: mean survival time, higher = longer survival
In short: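 Transplanted-tumor mice were given test agent; controls received vehicle only. Survival readings from the two groups were divided (treated over control).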

[1] = dose: 100.0 mg/kg/injection, schedule: Q01DX009 (ip), vehicle: Klucel (hydroxypropylcellulose) (HPC)
[2] = dose: 100.0 mg/kg/injection, schedule: Q04DX003 (ip), vehicle: saline with Tween-80
[3] = dose: 200.0 mg/kg/injection, schedule: Q04DX003 (ip), vehicle: saline with Tween-80
[4] = dose: 400.0 mg/kg/injection, schedule: Q04DX003 (ip), vehicle: saline with Tween-80
[5] = dose: 200.0 mg/kg/injection, schedule: Q01DX009 (ip), vehicle: saline

CC1COCC(C)N1C1=C(Cl)C(=O)c2ccccc2C1=O (centres undefined)
T/C (dose: 12.5 mg/kg/injection, schedule: Q01DX001 (ip), vehicle: carboxymethylcellulose (CMC)): 98 % of control
T/C (dose: 25.0 mg/kg/injection, schedule: Q01DX001 (ip), vehicle: carboxymethylcellulose (CMC)): 98 % of control

N#CC(C#N)=C(C#N)C#N
T/C (dose: 3.13 mg/kg/injection, schedule: Q01DX009 (ip), vehicle: Klucel (hydroxypropylcellulose) (HPC)): 95 % of control
T/C (dose: 6.25 mg/kg/injection, schedule: Q01DX009 (ip), vehicle: Klucel (hydroxypropylcellulose) (HPC)): 91 % of control

CCOC(=O)Nc1cc2ccncc2c2sc3ccccc3c12
T/C (dose: 100.0 mg/kg/injection, schedule: Q04DX003 (ip), vehicle: water): 92 % of control
T/C (dose: 200.0 mg/kg/injection, schedule: Q04DX003 (ip), vehicle: water): 87 % of control
T/C (dose: 400.0 mg/kg/injection, schedule: Q04DX003 (ip), vehicle: water): 101 % of control

O=S(=O)(F)c1cc(Cl)c(O)c(S(=O)(=O)F)c1
T/C [1]: 101 % of control

CN(C)C(=S)[S][Pb]([S]C(=S)N(C)C)([c]1ccccc1)[c]1ccccc1
T/C (dose: 100.0 mg/kg/injection, schedule: Q01DX001 (ip), vehicle: steriod suspending solution): 114 % of control
T/C (dose: 200.0 mg/kg/injection, schedule: Q01DX001 (ip), vehicle: steriod suspending solution): 111 % of control
T/C (dose: 400.0 mg/kg/injection, schedule: Q01DX001 (ip), vehicle: steriod suspending solution): 109 % of control

COC(=O)Cc1ccccc1OC
T/C (dose: 50.0 mg/kg/injection, schedule: Q01DX009 (ip), vehicle: saline with Tween-80): 87 % of control
T/C (dose: 100.0 mg/kg/injection, schedule: Q01DX009 (ip), vehicle: saline with Tween-80): 87 % of control
T/C (dose: 200.0 mg/kg/injection, schedule: Q01DX009 (ip), vehicle: saline with Tween-80): 87 % of control

CCOC(=O)c1cnc(SC)nc1Nc1ccc(C)cc1
T/C [2]: 97 % of control
T/C [3]: 91 % of control
T/C [4]: 86 % of control

CC(C)=CCN1CCN=C(c2ccccc2)c2cc(Cl)ccc21
T/C (dose: 50.0 mg/kg/injection, schedule: Q01DX009 (ip), vehicle: Klucel (hydroxypropylcellulose) (HPC)): 100 % of control
T/C [1]: 105 % of control
T/C (dose: 100.0 mg/kg/injection, schedule: Q04DX003 (ip), vehicle: Klucel (hydroxypropylcellulose) (HPC)): 102 % of control
T/C (dose: 200.0 mg/kg/injection, schedule: Q01DX009 (ip), vehicle: Klucel (hydroxypropylcellulose) (HPC)): 94 % of control
T/C (dose: 200.0 mg/kg/injection, schedule: Q04DX003 (ip), vehicle: Klucel (hydroxypropylcellulose) (HPC)): 98 % of control
T/C (dose: 400.0 mg/kg/injection, schedule: Q04DX003 (ip), vehicle: Klucel (hydroxypropylcellulose) (HPC)): 93 % of control

CN(C)N=Nc1ccccc1
T/C (dose: 4.0 mg/kg/injection, schedule: Q03HX008 (ip), vehicle: other): 102 % of control
T/C (dose: 4.0 mg/kg/injection, schedule: Q03HX016 (ip), vehicle: other): 101 % of control
T/C (dose: 4.0 mg/kg/injection, schedule: Q03HX024 (ip), vehicle: other): 105 % of control
T/C (dose: 8.0 mg/kg/injection, schedule: Q03HX008 (ip), vehicle: other): 103 % of control
T/C (dose: 8.0 mg/kg/injection, schedule: Q03HX016 (ip), vehicle: other): 103 % of control
T/C (dose: 8.0 mg/kg/injection, schedule: Q03HX024 (ip), vehicle: other): 108 % of control
T/C (dose: 12.5 mg/kg/injection, schedule: Q04DX003 (ip), vehicle: saline with Tween-80): 102 % of control
T/C (dose: 15.0 mg/kg/injection, schedule: Q01DX015 (ip), vehicle: carboxymethylcellulose (CMC)): 104 % of control and 106 % of control and 107 % of control
T/C (dose: 16.0 mg/kg/injection, schedule: Q01DX005 (iv), vehicle: other): 111 % of control
T/C (dose: 16.0 mg/kg/injection, schedule: Q01DX009 (ip), vehicle: other): 103 % of control
T/C (dose: 16.0 mg/kg/injection, schedule: Q01DX009 (sc), vehicle: other): 107 % of control
T/C (dose: 16.0 mg/kg/injection, schedule: Q03HX008 (ip), vehicle: other): 114 % of control
T/C (dose: 16.0 mg/kg/injection, schedule: Q03HX016 (ip), vehicle: other): 117 % of control
T/C (dose: 18.0 mg/kg/injection, schedule: Q01DX015 (ip), vehicle: carboxymethylcellulose (CMC)): 104 % of control
T/C (dose: 25.0 mg/kg/injection, schedule: Q04DX003 (ip), vehicle: saline with Tween-80): 123 % of control
T/C (dose: 26.0 mg/kg/injection, schedule: Q01DX015 (ip), vehicle: carboxymethylcellulose (CMC)): 108 % of control
T/C (dose: 30.0 mg/kg/injection, schedule: Q01DX015 (ip), vehicle: carboxymethylcellulose (CMC)): 110 % of control and 207 % of control
T/C (dose: 31.25 mg/kg/injection, schedule: Q01DX001 (ip), vehicle: saline with Tween-80): 108 % of control
T/C (dose: 32.0 mg/kg/injection, schedule: Q01DX001 (ip), vehicle: other): 109 % of control
T/C (dose: 32.0 mg/kg/injection, schedule: Q01DX001 (sc), vehicle: other): 102 % of control
T/C (dose: 32.0 mg/kg/injection, schedule: Q01DX005 (iv), vehicle: other): 109 % of control
T/C (dose: 32.0 mg/kg/injection, schedule: Q01DX009 (ip), vehicle: other): 122 % of control
T/C (dose: 32.0 mg/kg/injection, schedule: Q01DX009 (sc), vehicle: other): 114 % of control
T/C (dose: 32.0 mg/kg/injection, schedule: Q03HX024 (ip), vehicle: other): 120 % of control
T/C (dose: 32.0 mg/kg/injection, schedule: Q04DX003 (ip), vehicle: other): 102 % of control
T/C (dose: 32.0 mg/kg/injection, schedule: Q04DX003 (ip), vehicle: saline): 117 % of control
T/C (dose: 32.0 mg/kg/injection, schedule: Q08DX002 (ip), vehicle: other): 107 % of control
T/C (dose: 50.0 mg/kg/injection, schedule: Q01DX001 (ip), vehicle: carboxymethylcellulose (CMC)): 97 % of control
T/C (dose: 50.0 mg/kg/injection, schedule: Q04DX003 (ip), vehicle: saline with Tween-80): 115 % of control
T/C (dose: 60.0 mg/kg/injection, schedule: Q01DX015 (ip), vehicle: carboxymethylcellulose (CMC)): 119 % of control and 88 % of control
T/C (dose: 62.5 mg/kg/injection, schedule: Q01DX001 (ip), vehicle: saline with Tween-80): 111 % of control
T/C (dose: 64.0 mg/kg/injection, schedule: Q01DX001 (ip), vehicle: other): 112 % of control
T/C (dose: 64.0 mg/kg/injection, schedule: Q01DX001 (sc), vehicle: other): 102 % of control
T/C (dose: 64.0 mg/kg/injection, schedule: Q01DX009 (ip), vehicle: other): 120 % of control
T/C (dose: 64.0 mg/kg/injection, schedule: Q01DX009 (oral), vehicle: other): 122 % of control
T/C (dose: 64.0 mg/kg/injection, schedule: Q04DX003 (ip), vehicle: other): 114 % of control
T/C (dose: 64.0 mg/kg/injection, schedule: Q08DX002 (ip), vehicle: other): 101 % of control
T/C (dose: 100.0 mg/kg/injection, schedule: Q01DX001 (ip), vehicle: carboxymethylcellulose (CMC)): 93 % of control
T/C [2]: 105 % of control and 117 % of control
T/C (dose: 128.0 mg/kg/injection, schedule: Q01DX001 (ip), vehicle: other): 123 % of control
T/C (dose: 128.0 mg/kg/injection, schedule: Q01DX001 (oral), vehicle: other): 109 % of control
T/C (dose: 128.0 mg/kg/injection, schedule: Q01DX001 (sc), vehicle: other): 112 % of control
T/C (dose: 128.0 mg/kg/injection, schedule: Q01DX009 (oral), vehicle: other): 122 % of control
T/C (dose: 200.0 mg/kg/injection, schedule: Q01DX001 (ip), vehicle: carboxymethylcellulose (CMC)): 123 % of control
T/C (dose: 256.0 mg/kg/injection, schedule: Q01DX001 (sc), vehicle: other): 121 % of control

CCN(CC)C(=O)c1cccnc1
T/C (dose: 12.5 mg/kg/injection, schedule: Q01DX009 (ip), vehicle: saline): 102 % of control
T/C (dose: 25.0 mg/kg/injection, schedule: Q01DX009 (ip), vehicle: saline): 89 % of control
T/C (dose: 50.0 mg/kg/injection, schedule: Q01DX009 (ip), vehicle: saline): 93 % of control
T/C (dose: 75.0 mg/kg/injection, schedule: Q01DX001 (ip), vehicle: saline): 102 % of control
T/C (dose: 100.0 mg/kg/injection, schedule: Q01DX009 (ip), vehicle: saline): 105 % of control
T/C (dose: 150.0 mg/kg/injection, schedule: Q01DX001 (ip), vehicle: saline): 94 % of control
T/C [5]: 93 % of control
T/C (dose: 300.0 mg/kg/injection, schedule: Q01DX001 (ip), vehicle: saline): 90 % of control

O=C1CN(CO)C(=O)CN1CO
T/C (dose: 44.0 mg/kg/injection, schedule: Q01DX009 (ip), vehicle: saline): 105 % of control
T/C (dose: 66.0 mg/kg/injection, schedule: Q01DX009 (ip), vehicle: saline): 99 % of control
T/C (dose: 150.0 mg/kg/injection, schedule: Q01DX009 (ip), vehicle: saline): 108 % of control
T/C [5]: 105 % of control
T/C (dose: 400.0 mg/kg/injection, schedule: Q01DX009 (ip), vehicle: saline): 106 % of control

O=C(O)CCCCCCCCC1CC(F)(F)C(F)(F)S1 (centres undefined)
T/C [2]: 92 % of control
T/C [3]: 96 % of control
T/C [4]: 92 % of control
